This is an account of results in publication PMC7796031, “Studies of Coumarin Derivatives for Constitutive Androstane Receptor (CAR) Activation” (Molecules, 2020).

One data set relates to UGT1A1. Briefly: Protein expression of UGT1A1 (western blot). It is filed as cell-based, human. The conditions noted are these: Figure 2; after scoparone or CITCO treatment. Here is the method: (§1) 1 × 10^6 cells were seeded in a 10 cm plate, incubated at 37 °C for overnight and treated with various concentrations of compounds for the indicated times. After incubation, the culture medium was removed and washed twice with 2 mL ice-cold 1× PBS. Three hundred μL of protein lysis buffer (150 mM NaCl, 50 mM Tris-HCl (pH 7.4), 1% SDS, 1% Triton X-100, 1 mM PMSF) was added into each plate, scraped with a rubber policeman, collected into a premarked microtube and the incubated in ice for 1 h, sonicated by Ultrasonic Cell Disruptor for three time at 5 s each. The cell lysated was cleared by centrifugation at 12,000× g for 15 min at 4 °C. Supernatants were transferred into a fresh marked microtube and stored at −20 °C for future use.
(§2) Protein concentration of each sample was determined using a BCA Protein Assay Kit (Pirece®, Thermo Scientific). Different percentages of SDS-PAGE gels were prepared according to the molecular size of proteins of interest. After complete polymerization of stacking gels, each sample with equal amount of total protein was separated in polyacrylamide gels (stacking gel: 50 v, 60 min; separating gel: 100 v, 60 min). After separating, wet-transfer method was utilized to transfer proteins onto the PVDF membrane. The gels were assembled in the transfer sandwich and put in a transfer tank filled with transfer buffer (25 mM glycine, 0.15% ethanolamine, 20% methanol). The electro-transfer was performed at the voltage of 100 volt for 80 min at 4 °C. After transfer, PVDF-membrane was blocked with 5% BSA in 1× TBS-Tween at room temperature for 1 h. Membrane was washed with 10 mL 1× TBS-Tween three times and incubated with primary antibodies overnight at 4 °C with gentle agitation. After primary antibody was removed, the membrane was washed three times with 10 mL 1× TBS-Tween for 10 min at room temperature with constant shaking. […] The emitted fluorescence from the membrane was caught on a LAS-4000 biomolecule imager (FUJI.).

In a further data set the test system is human CAR. More on the design: method as in PMID 10757780, PMID 12611900. The conditions noted are these: cited from earlier work.
In another data set the test system is MRP2. Briefly: Protein expression of MRP2 (western blot). It is filed as cell-based, human. The note with it: Figure 2; after scoparone or CITCO treatment. The protocol:
Figure 7 The protein expressions of MRP2 after 6,7-diprenoxycoumarin (50) treatment. Hep3B cell (1 × 10^6) were treated with 50 (5, 10, 20 and 40 μM) for 24 h. Treated cell lysates were prepared as described in the Methods section and the expression of MRP2 was analyzed by western blot.
as §1
as §2, with “agitation.” for “agitation. After primary antibody was removed, the membrane was washed three times with 10 mL 1× TBS-Tween for 10 min at room temperature with constant shaking.”

For data set [1], the target named is T1, Constitutive androstane receptor (CAR) (Homo sapiens, UniProt Q14994).
T1 construct: The pGL4-gtPBREM plasmid was transfected into Hep3B cells; endogenous in cells
T1 sequence (Q14994 1-352): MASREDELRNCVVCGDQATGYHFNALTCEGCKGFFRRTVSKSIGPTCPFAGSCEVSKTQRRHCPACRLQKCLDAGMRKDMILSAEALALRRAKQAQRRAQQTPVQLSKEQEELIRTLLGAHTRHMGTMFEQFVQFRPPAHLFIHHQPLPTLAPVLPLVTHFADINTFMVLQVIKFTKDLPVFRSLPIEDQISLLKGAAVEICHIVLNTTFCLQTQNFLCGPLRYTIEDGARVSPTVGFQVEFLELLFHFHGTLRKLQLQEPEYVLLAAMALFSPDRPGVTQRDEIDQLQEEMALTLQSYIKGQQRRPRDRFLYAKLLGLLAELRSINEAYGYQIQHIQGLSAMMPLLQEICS
Briefly: In vitro CAR activation screening assay (UGT1A1 promoter gtPBREM-pGL4 luciferase reporter in Hep3B-gtPBREM cells). It is filed as cell-based. The conditions noted are these: for activation at 10 µM: (luminescence of compound − luminescence of scoparone)/luminescence of scoparone × 100%, read-out: CAR Activation Fold. An excerpt:
Until now, there is no commercially available high throughput screening method for CAR activation. Traditionally, CAR activation can be detected in western blots by its downstream signals such as UGT1A1, MRP2 or CYP2B6. […] However, this method was slow and pricy. In order to rapidly screen all the compounds for CAR activation at less cost, an in vitro CAR activation screening assay was developed: DNA was extracted from Hep3B cells and UGT1A1 promoter was obtained using PCR amplification. Ligation between UGT1A1 promoter and pGL4 vector was performed and the plasmid was amplified via E. coli replication. The desired plasmid was extracted from E. coli and transfected into Hep3B. The desired colony bearing UGT1A1 promoter-pGL4 plasmid was selected by neomycin. CAR activation was measured by adding tested compounds to Hep3B for several hours and luminescence was measured. Higher activation will get higher luminescence readout. This assay system was validated with two different CAR agonists: CITCO (direct agonist) and scoparone (an indirect agonist). […] Different concentration of scoparone at 1, 5, 10 and 20 μM had been tested either for luciferase assay or downstream UGT1A1 and MRP2 expression (data not shown) and 10 μM was selected to be the best condition for the following work.
After successfully establishing the in vitro assay, all of the coumarin compounds were subjected to the screening (at 10 μM) and their SAR was discussed. Although the reporter system can successfully identify CAR-activating compounds under 8 h and display better efficiency and sensitivity compared with western blots, it only presented a medium luciferase response. According to previous studies, CITCO was reported to only moderately enhance human CAR (less than 2-fold), compared with the enhance provided by TCPOBOP for murine CAR (5- to 10-fold) in luciferase reporter assays. […] Another possibility for the medium response in our reporter system might be the contribution of the whole gtPBREM element which might include response-suppressive elements that was used and the single nucleotide variation of DR3 element which was reported to slightly reduce the original UGT1A1 activity.
The genomic DNA was isolated from Hep3B cells using Wizard® Genomic DNA Purification Kit (Promega, Fitchburg, WI, USA). The promoter region of UGT1A1 gene, gtPBREM element, was amplified by AccuPrime^TM Taq DNA Polymerase High Fidelity Kit (Invitrogen, MA, USA). The sequence of the amplified element was confirmed by DNA sequencing company and cloned into pGL4 luciferase reporter vector. The pGL4-gtPBREM plasmid was transfected into Hep3B cells. The stable pGL4-gtPBREM transfected Hep3B cells, Hep3B-gtPBREM cells, were established after G418 selection. The luciferase activity represented of CAR activation ability was measured using individual established clone. Further, CAR-shRNA was obtained from the Genomic Research Center and transfected into Hep3B-gtPBREM cells. The transient transfected shCAR-Hep3B-gtPBREM cells were used for further luciferase assays.
The Hep3B-gtPBREM cells and shCAR-Hep3B-gtPBREM cells (1.5 × 10^5 cells/well) were seeded into 12-well plates for overnight then pre-determined concentration compounds were added for desired time. After treatment, transfected cells were washed twice in PBS, lysated with 1× passive lysis buffer and luciferase intensity of equal amount of cell lysate was measured by a Synergy HT Multi-Mode Microplate Reader (BioTek, Winooski, VT, USA).

Data set [2] concerns phosphoenopyruvate carboxykinse (PEPCK) mRNA expression. Briefly: PEPCK mRNA expression induced by dexamethasone and 8-bromo-cAMP in H4IIE cells. It is filed as cell-based, rat. The conditions noted are these: dexamethasone (500 nM) + 8-bromo-cAMP. The protocol:
S21 Effects of scoparone, 50 (PLH), and 6 on phosphoenopyruvate carboxykinse (PEPCK) mRNA expression induced by dexamethasone and 8-bromo-cAMP.
A quantified result of dexamethasone (500 nM) and 8-bromo-cAMP (100µM) induced PEPCK mRNA expression in the presence or absence of scoparone, 50 (PLH) and 6 at 0.78 µM was shown. Insulin (10 nM) was served as an experimental control. Quantified data was presented as mean ± S.E.M. (n = 4). **P < 0.01 and ***P < 0.001 when compared with induction control (None).
PEPCK mRNA could be induced by dexamethasone and 8-bromo-cAMP after 3hr. The presence of insulin […]
Scoparone, at 0.78 µM, can suppress PEPCK
In contrast, both 50 (PLH) and 6 could also suppress PEPCK
Cell culture: The rat H4IIE cells were cultured in Dulbecco’s Modified Eagle’sMedium (DMEM) containing 1 g/L glucose, 5% (v/v) fetal calf serum (FBS) and 1% (v/v) antibiotics (100 U/mL penicillin and 0.1 g/L streptomycin). Cultured cells were maintained at 37 ◦C in an atmosphere of 5% CO2 and 95% air.
The measurement of PEPCK gene expression: H4IIE cells were seeded into 6 cm dish and allowed for the attachment. After serum starvation overnight, cells were treated with various conditions described in the figure legend. After treatment, total RNA of each treatment was extracted using TRI-reagent according to the manufacturer’s instructions. The pelleted RNA was dissolved in distilled water, quantified with NanoDrop™ 1000 Spectrophotometer (Thermo Fisher Scientific, USA) and stored at −70 ◦C. Total RNA (1µg) was reverse transcribed to generate templates. 50 ng of cDNA was employed for further PCR. The sequences of […]
primers for β-actin: 5’-[…]- 3’ and 5’-[…]-3’ and […]
(1 picture or pasted object on this page, not shown here)

The test system of the next data set is murine CAR. Also on record: method as in PMID 10757780, PMID 12611900. The note with it: cited from earlier work.
The next data set deals with CAR protein. Put plainly: Immunofluorescence staining for CAR translocation in Hep3B cells. It is filed as cell-based, human. The note with it: pre-treated with 10 nM okadaic acid, then 50 (10 μM) 2 h. The protocol: Figure 3 Image of immunofluorescence staining for CAR translocation in Hep3B cells after 6,7-diprenoxycoumarin (50) treatment (A) and scoparone treatment (C). Hep3B cells were treated with 50 (10 μM) for 2 h. The negative control group was pre-treated with 10 nM okadaic acid (OA). The blue and green fluorescence stands for signals of nuclei and CAR protein, respectively. The protein expression of nuclear CAR after 6,7-diprenoxycoumarin (50) treatment for 2 h (B).
Hep3B cells (4 × 10^5) were grown on coverslips for overnight then washed twice with 1× PBS and fixed with 4% paraformaldehyde in 1× PBS for 30 min at room temperature. Cells were then permeabilized with 1× PBS containing 0.1% (v/v) Triton X-100 for 10–15 min and blocked in 1× PBS containing 5% BSA for 1 h at room temperature. CAR antibody (1:200 dilutions) was added and reacted at room temperature for 2 h in 1× PBS containing 5% BSA. FITC-conjugated goat anti-rabbit IgG antibody was added for another 1 h at room temperature. Coverslips were mounted and images were acquired under a fluorescence microscope.

Where two headings read alike, the source gives them in different places.

In the case of `Clc1ccc(-c2nc3sccn3c2/C=N/OCc2ccc(Cl)c(Cl)c2)cc1` [CITCO, 6-(4-Chlorophenyl) imidazo [2,1-b] [1, 3] thiazole-5-carbaldehyde O-(3,4-dichlorobenzyl) oxime, reference compound], in the data set with UGT1A1, the “protein expression of UGT1A (CAR downstream gene)” value was “upregulated”. The “enhancement of human CAR in luciferase reporter assays” value with human CAR is reported as “less than 2 fold”. The “protein expression of MRP2 (CAR downstream gene)” value with MRP2 is recorded as “upregulated”. The “elevation of luciferase activity” value in data set [1] (assay validation, direct agonist) is given as “about 50%”.
Take `CC(C)=CCOc1cccc2oc(=O)ccc12` [Compound 6]: the “suppression of PEPCK mRNA induction” value in data set [2] (test compounds as printed) was “less potent”. Moreover, the activation at 10 µM in data set [1] (Table 1) was -5%.
On to `O=c1ccc2cc(OC(F)(F)F)ccc2o1` [Compound 11, 6-Trifluoromethoxycoumarin], for which the melting point was in the range of 83 to 85 °C. In addition, the activation at 10 µM in data set [1] (Table 1) was -34%.
`O=c1ccc2ccc(OC(F)(F)F)cc2o1` [Compound 20, 7-Trifluoromethoxycoumarin] had a melting point of 69 to 71 °C. In data set [1] (Table 1), the activation at 10 µM is 18%.
With `C=CCOc1cc2ccc(=O)oc2cc1OCC=C` [Compound 44, 6,7-Dialloxycoumarin], the melting point lay in the range of 84 to 85 °C. Also, the activation at 10 µM in data set [1] (Table 2) is -18%.
Compound `CCCCOc1cc2ccc(=O)oc2cc1OCCCC` [Compound 46, 6,7-Di-n-butoxycoumarin] yielded a melting point of 77 to 79 °C. In data set [1] (Table 2), the activation at 10 µM is -39%.
As for `Clc1cnc(Oc2ccc(Oc3ncc(Cl)cc3Cl)cc2)c(Cl)c1` [TCPOBOP], the “enhancement of murine CAR in luciferase reporter assays” value with murine CAR is on record as 5- to 10 fold.
Consider `C=C1[C@@H](O)[C@@H]2O[C@]3(CC[C@H](/C=C/[C@@H](C)[C@@H]4CC(C)=C[C@@]5(O[C@H](C[C@@](C)(O)C(=O)O)CC[C@H]5O)O4)O3)CC[C@H]2O[C@@H]1[C@@H](O)C[C@H](C)[C@H]1O[C@@]2(CCCCO2)CC[C@H]1C` [okadaic acid, reference compound], for which, in the data set with CAR protein, the “CAR translocation activity of 50 after pre-treatment” value was “inhibited”.
On to “insulin: Insulin (10 nM) served as an experimental control in the PEPCK assay”, for which the “suppression of PEPCK mRNA induction” value in data set [2] (10 nM, experimental control) is “suppress such induction”.
